In the supplement of paper PMC4858399:
Counter-ions that a name gives are not always drawn.

Legend:
[1] = test system: Caenorhabditis elegans N2; assay: mean nematode size ln(EXT) after 48 h, plate-adjusted (DMSO control set to 6) (ln(EXT), control-adjusted); higher = larger nematodes / less growth inhibition; conditions: exposure time 48 h
Outline: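 In K-medium with killed OP50, 1% DMSO and 0.5–200 µM chemical, synchronised N2 L1 larvae of C. elegans (50 per well) grew for 48 h at 20°C. Extinction was read for every worm on the Biosort, with debris removed by a growth model. Natural-log values averaged per well gave mean size, which was corrected per plate by subtracting the vehicle control mean and adding 6.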

[2] = test system: Caenorhabditis elegans N2; assay: lowest effective concentration for larval growth inhibition (size below effect threshold); higher = less potent; conditions: exposure time 48 h
Outline: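 Chemical exposure ran for 48 h at 20°C: 50 C. elegans N2 L1 larvae per 96-well in K-medium with killed bacteria, 1% DMSO and 0.5, 1, 5, 10, 50, 100 or 200 µM chemical. Extinction of each worm, read as size on the Biosort, was log-transformed and averaged by well. The lowest effective concentration is the first dose whose plate-adjusted mean size is below a fixed value and remains so at all higher doses; the value is 5.665.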

SMILES | mean nematode size ln(EXT) (ln) ([1]; 0.5 µM) | mean nematode size ln(EXT) (ln) ([1]; 1 µM) | mean nematode size ln(EXT) (ln) ([1]; 5 µM) | mean nematode size ln(EXT) (ln) ([1]; 10 µM) | mean nematode size ln(EXT) (ln) ([1]; 50 µM) | mean nematode size ln(EXT) (ln) ([1]; 100 µM) | mean nematode size ln(EXT) (ln) ([1]; 200 µM) | lowest effective concentration [2]
Cc1ccn2nc(S(=O)(=O)Nc3c(F)cccc3F)nc2n1 [Flumetsulam] | 5.91 | 5.95 | 6.03 | 6.05 | 5.93 | 6.02 | 5.88 | > 200 µM
CCCCCCCC(=O)O [Octanoic acid] | 6 | 5.81 | 5.92 | 5.8 | 5.89 | 5.84 | 5.78 | > 200 µM
NC1CCCCC1 [Cyclohexylamine] | 5.84 | 5.95 | 5.82 | 5.85 | 5.98 | 5.83 | 5.86 | > 200 µM
Cc1ccc(O)cc1C [3,4-Dimethylphenol] | 5.87 | 5.86 | 5.92 | 5.91 | 5.95 | 5.86 | 5.86 | > 200 µM
c1nc[nH]n1 [1H-1,2,4-Triazole] | 6.09 | 6.11 | 6 | 6.04 | 6.04 | 6.02 | 5.74 | > 200 µM
Cc1ccc(N)cc1O [5-Amino-o-cresol] | 5.44 | 5.57 | 5.55 | 5.6 | 5.74 | 5.75 | 5.8 | > 200 µM
CC(=O)Nc1ccc(O)cc1 [Acetaminophen] | 6.04 | 6.05 | 6.04 | 6.12 | 6.09 | 6.04 | 5.74 | > 200 µM
N#CN [Cyanamide] | 5.91 | 5.96 | 6.01 | 6 | 5.96 | 6.01 | 5.92 | > 200 µM
COC(=O)CSc1cc(/N=c2\sc(=O)n3n2CCCC3)c(F)cc1Cl [Fluthiacet-methyl] | 5.92 | 5.93 | 5.96 | 5.96 | 5.98 | 5.95 | 5.92 | > 200 µM
OCc1ccccc1 [Benzyl alcohol] | 5.85 | 5.94 | 5.9 | 5.84 | 5.95 | 5.93 | 5.81 | > 200 µM
COc1cc(S(=O)(=O)O)c(C)cc1N=Nc1c(O)ccc2cc(S(=O)(=O)O)ccc12 [Allura red] | 5.71 | 5.75 | 5.76 | 5.79 | 5.72 | 5.67 | 5.86 | > 200 µM
COc1ccccc1N [2-Anisidine] | 5.76 | 5.78 | 5.84 | 5.82 | 5.83 | 5.81 | 5.78 | > 200 µM
CCCCCOC(=O)c1ccccc1C(=O)OCCCCC [Dipentyl phthalate] | 5.85 | 5.86 | 5.89 | 5.87 | 5.85 | 5.81 | 5.73 | > 200 µM
CCCCCOC(C)=O [Pentyl acetate] | 5.91 | 5.91 | 5.94 | 6 | 5.89 | 5.89 | 5.7 | > 200 µM
CCCc1ccccc1 [Propylbenzene] | 5.75 | 5.64 | 5.71 | 5.69 | 5.38 | 5.53 | 5.61 | 50 µM
COC(=O)c1ccc(O)cc1 [Methylparaben] | 6.02 | 5.99 | 5.95 | 6.11 | 6.02 | 6.06 | 5.7 | > 200 µM
COc1cc(OC)nc(Sc2cccc(Cl)c2C(=O)O)n1 [Pyrithiobac-sodium] | 5.98 | 6 | 6.11 | 6.18 | 6.06 | 6.1 | 5.69 | > 200 µM
OCCCl [2-Chloroethanol] | 6 | 5.9 | 5.92 | 5.82 | 5.91 | 5.95 | 5.83 | > 200 µM
CCCCc1ccc2c(n1)[C@@H](c1ccc(OC)cc1C[C@H](C)C(=O)O)[C@H](C(=O)O)[C@H]2c1ccc2c(c1)OCO2 | 5.82 | 5.87 | 5.83 | 6.32 | 5.91 | 5.95 | 5.88 | > 200 µM
COC(=O)NS(=O)(=O)c1ccc(N)cc1 [Asulam] | 6.06 | 5.99 | 5.51 | 6.04 | 5.49 | 5.99 | 5.83 | > 200 µM
COC(=O)c1ccccc1C(=O)OC [Dimethyl phthalate] | 5.82 | 5.99 | 6.07 | 6.01 | 6.18 | 6.01 | 5.98 | > 200 µM
O=[N+]([O-])c1ccc(O)cc1 [4-Nitrophenol] | 5.92 | 5.82 | 5.87 | 5.69 | 5.89 | 5.8 | 5.8 | > 200 µM
COC(=O)CCC(=O)OC [Dimethyl succinate] | 5.88 | 5.94 | 5.85 | 6.11 | 5.84 | 5.87 | 5.96 | > 200 µM
C[C@@]1(c2ccc(Oc3ccccc3)cc2)OC(=O)N(Nc2ccccc2)C1=O (racemic) [Famoxadone] | 5.8 | 5.77 | 5.7 | 5.8 | 5.75 | 5.83 | 5.67 | > 200 µM
O=c1ccc2ccccc2o1 [Coumarin] | 5.93 | 5.92 | 5.85 | 5.93 | 5.94 | 5.95 | 5.8 | > 200 µM
O=C(O)Cc1ccccc1Nc1c(Cl)cccc1Cl [Diclofenac sodium salt] | 5.93 | 5.95 | 5.92 | 5.99 | 5.92 | 5.9 | 5.83 | > 200 µM
Nc1ccc([N+](=O)[O-])cc1 [4-Nitroaniline] | 5.76 | 5.77 | 5.73 | 5.64 | 5.68 | 5.69 | 5.72 | > 200 µM
